In PMC11050282, “In Vitro and In Silico Studies on Cytotoxic Properties of Oxythiamine and 2′-Methylthiamine” (International Journal of Molecular Sciences, 2024):
pIC50: −log10 of the molar value.

Columns and labels:
[1] = tested on: primary human gingival fibroblasts; design: method as in PMID 35409800; conditions: 100 µM; cited from earlier work
OCT1 = conditions: OCT1-related transport of drugs to cancer cells; cited from earlier work
HeLa cells [2] = experiment: Cell counting / growth curves in in vitro culture; format: cell-based, human; conditions: for GI50: HeLa cells, concentration causing 50% cell growth inhibition, from cell growth graphs, mean ± SD; for growth of HeLa cells in culture: microscopic observation / growth curves; for decrease in HeLa cell number compared to the control: 47 µM; for number of HeLa cells, % of the control: 1500 µM (maximum concentration)
[3] = tested on: fibroblasts (ATCC-CRL-2106); experiment: Cell counting / growth curves in in vitro culture; format: cell-based, human; conditions: for fibroblast cell number / growth in comparison to the controls: 6–1500 µM; for GI50: Homo sapiens, Fibroblast, fibroblasts, concentration causing 50% cell growth inhibition, from cell growth graphs
HeLa cells [4] = experiment: MTT test (cell metabolic activity); format: cell-based, human; conditions: for pIC50: HeLa cells, 50% reduction in cell metabolism rate, MTT test; for pIC50 / SI (selectivity index): mean ± SD; for SI (selectivity index): ratio of IC50 (MTT) fibroblasts versus HeLa cells
Protocol: (§1) We investigated the cytotoxicity and effects of oxythiamine and 2′-methylthiamine on fibroblast (ATCC-CRL-2106) and HeLa (the human cervical cancer cell line; CCL-2; ATCC, Manassas, VA, USA) cell growth. Fibroblasts were at passage 5 and HeLa cells were at passage 15. Cells were cultured under the 5% CO2 and 95% humidity in Medium199 (M4530; Sigma-Aldrich, St. Louis, MO, USA) with 10% fetal bovine serum (F7524; Sigma-Aldrich), 50 U/mL penicillin, and 50 µg/mL streptomycin (P0781; Sigma-Aldrich) at 37 °C. The media was changed every 2 days. Cells were seeded at the density of 1 × 10^5 cells/well in 12-well plates one day prior to the addition of the test compounds. […] The toxicity of oxythiamine and 2′-methylthiamine was determined by means of colorimetric detection using the MTT test. The cells were incubated for 0.5 h in 0.5 mL of PBS with 50 μL of MTT (5 mg/mL). The medium was then removed from the wells, and formazan crystals were dissolved in 0.5 mL of dimethyl sulfoxide (DMSO) with 0.01 mL of Sorensen’s buffer. Absorbance was measured by means of the Lambda E plate reader (MWG Biotech AG, Ebensburg, Germany) at a wavelength of 570 nm. The results were expressed as a percentage of the controls. […] The experiments were conducted in six independent replicates for the purpose of statistical evaluation.

[5] = tested on: fibroblasts (ATCC-CRL-2106); experiment: MTT test (cell metabolic activity); format: cell-based, human; conditions: for pIC50: Homo sapiens, Fibroblast, fibroblasts, 50% reduction in cell metabolism rate, MTT test
Protocol: as §1

THTR1 (SLC19A2) = conditions: thiamine transport by THTR1; cited from earlier work
THTR2 (SLC19A3) = conditions: thiamine transport by THTR2; cited from earlier work
rat liver transketolase = target: rat liver transketolase; design: method as in PMID 3730445; conditions: cited from earlier work
yeast transketolase = target: yeast transketolase; design: method as in PMID 13719876; conditions: cited from earlier work
human skin fibroblasts = tested on: human skin fibroblasts; design: method as in PMID 25626895; conditions: 30 µM to 1000 µM; cited from earlier work

| GI50 (HeLa cells [2]; Homo sapiens, HeLa) [µM] | pIC50 (HeLa cells [4]; Homo sapiens) | SMILES | reduction in cell viability [1] | growth of HeLa cells in culture (HeLa cells [2]) | fibroblast cell number / growth in comparison to the controls [3] | GI50 [3] [µM] | pIC50 [5] | decrease in HeLa cell number compared to the control (HeLa cells [2]) | number of HeLa cells, % of the control (HeLa cells [2]) [%] | GI50 (HeLa cells [2]) [µM] | SI (selectivity index) (HeLa cells [4]) | further results |
| --- | --- | --- | --- | --- | --- | --- | --- | --- | --- | --- | --- | --- |
|  |  | C/C(=C(\CCOP(=O)(O)O)SC(=O)c1ccccc1)N(C=O)Cc1cnc(C)[nH]c1=O [benfooxythiamine] | about 10% |  |  |  |  |  |  |  |  |  |
|  |  | COc1cccc2c1C(=O)c1c(O)c3c(c(O)c1C2=O)C[C@@](O)(C(=O)CO)C[C@@H]3O[C@H]1C[C@H](N)[C@H](O)[C@H](C)O1 [doxorubicin] |  |  |  |  |  |  |  |  |  | Km (OCT1): 4.6 µM |
| > 1500 | < 2.82 | Cc1ncc(C[n+]2csc(CCO)c2C)c(N)n1 [thiamine] |  | did not observe any differences | did not observe any differences | > 1500 | < 2.82 |  |  |  |  | metabolic activity of fibroblasts (MTT) ([5]; concentrations above 47 µM): slightly increased; Km (THTR1 (SLC19A2)): 2.5 µM; Km (THTR2 (SLC19A3)): 0.00027 µM |
| 83 | 3.95 | Cc1ncc(C[n+]2c(C)sc(CCO)c2C)c(N)n1 [2′-methylthiamine, 2-[3-[(4-Amino-2-Methylpyrimidin-5-yl)methyl]-2,4-dimethyl-1,3-thiazol-3-ium-5-yl]ethanol] |  | inhibit the growth | did not find any significant differences | > 1500 | < 2.82 | decrease in the cell number by only about a half | ~25 | 107 | 180 | decrease of metabolic activity of HeLa cells (MTT) concerning the control (HeLa cells [4]; 750 µM): 30%; melting point: 211 to 214 °C |

| SMILES | GI50 (HeLa cells [2]; Homo sapiens, HeLa) [µM] | pIC50 (HeLa cells [4]; Homo sapiens) | reduction in cell viability [1] | growth of HeLa cells in culture (HeLa cells [2]) | fibroblast cell number / growth in comparison to the controls [3] | GI50 [3] [µM] | pIC50 [5] | decrease in HeLa cell number compared to the control (HeLa cells [2]) | number of HeLa cells, % of the control (HeLa cells [2]) [%] | GI50 (HeLa cells [2]) [µM] | SI (selectivity index) (HeLa cells [4]) | further results |
| --- | --- | --- | --- | --- | --- | --- | --- | --- | --- | --- | --- | --- |
| Cc1ncc(C[n+]2csc(CCO)c2C)c(O)n1 [oxythiamine] | 39 | 4.29 | about 10% | inhibit the growth | did not find any significant differences | > 1500 | < 2.82 | higher than five-fold decrease | 2 | 36 | 153 | activity at 47 µM (HeLa cells [4]; Homo sapiens, HeLa, 47 µM, read-out: metabolic activity of HeLa cells (MTT), % of control): 50%; pIC50 (rat liver transketolase): 6.70; pIC50 (yeast transketolase): ~7.52; cell survival (human skin fibroblasts): not affecting cell survival |
